The record followed here is ChEMBL document CHEMBL5030558, “Optimization and Evaluation of Novel Antifungal Agents for the Treatment of Fungal Infection” (J Med Chem, 2021).

The target of data set [1] is CYP3A4 (Homo sapiens, UniProt P08684). In words: Inhibition of CYP3A4 (unknown origin) at 10 uM relative to control. It is filed as ADME.
Data set [2] has as its target CYP2C19 (Homo sapiens, UniProt P33261). Put plainly: Inhibition of CYP2C19 (unknown origin) at 10 uM relative to control. Type of data set: ADME.
For data set [3], the system named is Candida albicans. In words: Antifungal activity against Candida albicans ATCC SC5314 assessed as reduction in fungal growth incubated for 48 hrs by CLSI based broth microdilution method. It is filed as functional. A general note: Broth dilution looks for growth in wells or tubes with falling amounts of substance.
For data set [4], the system named is Nakaseomyces glabratus. Put plainly: Antifungal activity against Candida glabrata BG2 assessed as reduction in fungal growth incubated for 48 hrs by CLSI based broth microdilution method. It is filed as functional.
The test system of data set [5] is Aspergillus fumigatus. In words: Antifungal activity against Aspergillus fumigatus AF293 assessed as reduction in fungal growth incubated for 48 hrs by CLSI based broth microdilution method. It is filed as functional.
Data set [6] has as its system Cryptococcus neoformans. In words: Antifungal activity against Cryptococcus neoformans H99 assessed as reduction in fungal growth incubated for 72 hrs by CLSI based broth microdilution method. It is filed as functional.
Data set [7] can be described thus: Stability in human liver microsomes assessed as parent compound remaining after 30 mins. The settings on record: read-out: Stability. It is filed as ADME, Microsome. (In general: Liver microsomes are a subcellular fraction often used to study metabolism.)
In data set [8] the target is CYP2D6 (Homo sapiens, UniProt P10635). Put plainly: Inhibition of CYP2D6 (unknown origin) at 10 uM relative to control. It is filed as ADME.
Sequence of CYP2D6 (P10635 whole entry): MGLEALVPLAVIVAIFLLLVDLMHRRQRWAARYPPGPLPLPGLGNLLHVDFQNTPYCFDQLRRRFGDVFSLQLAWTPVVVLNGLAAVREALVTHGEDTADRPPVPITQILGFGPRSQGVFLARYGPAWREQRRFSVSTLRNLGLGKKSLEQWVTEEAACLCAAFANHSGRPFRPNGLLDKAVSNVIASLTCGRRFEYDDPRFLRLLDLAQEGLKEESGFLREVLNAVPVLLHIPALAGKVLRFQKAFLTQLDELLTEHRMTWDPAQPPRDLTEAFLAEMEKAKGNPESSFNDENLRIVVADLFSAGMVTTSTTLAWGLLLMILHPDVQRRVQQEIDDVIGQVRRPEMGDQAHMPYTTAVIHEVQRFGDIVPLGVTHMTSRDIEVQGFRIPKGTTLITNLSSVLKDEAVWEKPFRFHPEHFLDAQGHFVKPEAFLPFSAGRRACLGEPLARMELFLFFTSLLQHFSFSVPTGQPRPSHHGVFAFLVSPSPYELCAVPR
Data set [9] has as its target Cytochrome P450 3A4 (Homo sapiens, UniProt P08684). Put plainly: Inhibition of CYP3A4 (unknown origin) relative to control. Type of data set: ADME.
In data set [10] the target is Cytochrome P450 2C9 (Homo sapiens, UniProt P11712). Put plainly: Inhibition of CYP2C9 (unknown origin) relative to control. It is filed as ADME.
Sequence of Cytochrome P450 2C9 (P11712 whole entry): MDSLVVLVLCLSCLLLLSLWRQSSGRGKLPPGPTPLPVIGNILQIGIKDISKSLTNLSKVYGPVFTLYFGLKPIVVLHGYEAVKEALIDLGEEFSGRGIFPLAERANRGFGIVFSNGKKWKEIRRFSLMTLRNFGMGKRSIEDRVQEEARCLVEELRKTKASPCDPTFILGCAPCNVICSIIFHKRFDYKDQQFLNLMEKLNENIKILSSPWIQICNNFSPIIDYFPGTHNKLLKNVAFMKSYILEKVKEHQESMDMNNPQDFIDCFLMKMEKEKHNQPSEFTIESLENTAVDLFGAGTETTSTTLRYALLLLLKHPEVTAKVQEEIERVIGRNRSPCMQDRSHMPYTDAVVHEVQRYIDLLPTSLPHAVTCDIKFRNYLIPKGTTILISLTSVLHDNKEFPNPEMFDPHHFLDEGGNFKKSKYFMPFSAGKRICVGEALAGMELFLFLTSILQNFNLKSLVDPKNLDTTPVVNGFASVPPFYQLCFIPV
For data set [11], the target named is Cytochrome P450 2D6 (Homo sapiens, UniProt P10635). Put plainly: Inhibition of CYP2D6 (unknown origin). It is filed as ADME.
Sequence of Cytochrome P450 2D6 (P10635 whole entry): as the sequence (P10635 whole entry) above
Data set [12] in a line: Stability in rat liver microsomes assessed as parent compound remaining after 30 mins. Type of data set: ADME, Microsome. The settings on record: microsomes, 0.5 h.
Data set [13] can be described thus: Stability in human plasma assessed as parent compound remaining after 30 to 120 mins. It is filed as ADME, cell-free. The settings on record: time 30-120 min.
Data set [14] can be described thus: Stability in rat plasma assessed as parent compound remaining after 30 to 120 mins. It is filed as ADME, cell-free. The settings on record: time 30-120 min.
A short description of data set [15]: Stability in mouse liver microsomes assessed as parent compound remaining after 30 mins. It is filed as ADME, Microsome. The settings on record: microsomes, 0.5 h.
The subject of data set [16] is Cryptococcus neoformans. In words: Fungicidal activity against Cryptococcus neoformans H99 at 8 times of MIC after 12 hrs by time-kill kinetics assay. It is filed as functional, organism-based.
The test system of data set [17] is Trichophyton rubrum. In words: Fungicidal activity against Trichophyton rubrum KCCM60450 at 8 times after 24 hrs by time-kill kinetics assay. Type of data set: functional, organism-based.
Data set [18] concerns Trichophyton rubrum. Put plainly: Ex vivo antifungal activity against Trichophyton rubrum KCCM60450 infected in human nail assessed as reduction in ATP level at 10 % w/w after 24 hrs. It is filed as functional. Set-up: scale not given: the % may be the effect or the level left.
Data set [19] deals with Trichophyton mentagrophytes. In words: Fungicidal activity against Trichophyton mentagrophytes KCCM60449 at 8 times after 24 hrs by time-kill kinetics assay. It is filed as functional, organism-based.
For data set [20], the system named is Nakaseomyces glabratus. Put plainly: Induction of drug resistance in Candida glabrata BG2 assessed as increase in ECZ IC50 at 8 times IC50 after 4 days. Type of data set: functional, organism-based. The settings on record: BG2, 96 h.
Data set [21] deals with Candida albicans. Put plainly: Induction of drug resistance in Candida albicans ATCC SC5314 assessed as increase in EZC IC50 at 8 time IC50 after 7 days. The settings on record: time 7.0 day. It is filed as functional, organism-based.
Data set [22] relates to Candida albicans. In words: Induction of drug resistance in Candida albicans ATCC SC5314 assessed as increase in EZC IC50 at 8 time IC50 after 35 days. It is filed as functional, organism-based. The settings on record: time 35.0 day.
Data set [23] relates to Nakaseomyces glabratus. In words: Induction of drug resistant in Candida glabrata BG2 assessed as increase in EZC IC50 at 16 times IC50. It is filed as functional, organism-based.
The test system of data set [24] is Candida albicans. In words: Induction of drug resistant in Candida albicans ATCC SC5314 assessed as increase in EZC IC50 at 16 times IC50. It is filed as functional, organism-based.
For data set [25], the system named is Cryptococcus neoformans. In words: Fungicidal activity against Cryptococcus neoformans H99 at 8 times of MIC after 24 hrs by time-kill kinetics assay. Type of data set: functional, organism-based.
The test system of data set [26] is Candida albicans. Put plainly: Induction of drug resistant in Candida albicans ATCC SC5314 assessed as increase in FCZ IC50 at 16 times IC50. It is filed as functional, organism-based.
Data set [27] concerns Nakaseomyces glabratus. In words: Induction of drug resistant in Candida glabrata BG2 assessed as increase in FCZ IC50 at 16 times IC50. Type of data set: functional, organism-based.
Data set [28] has as its system Candida albicans. Put plainly: Induction of drug resistance in Candida albicans ATCC SC5314 assessed as increase in FCZ IC50 at 8 times IC50 measured after 5 to 22 days. Type of data set: functional, organism-based.
Data set [29] relates to Nakaseomyces glabratus. In words: Induction of drug resistance in Candida glabrata BG2 assessed as increase in FCZ IC50 at 8 times IC50 after 23 days. It is filed as functional, organism-based. The settings on record: BG2, 552 h.

Molecules are shown by their SMILES. Values after ≈ are worked out from the molar mass of the structure shown. Active and inactive are the calls of the source. The calls are words filed in the database; no cut-off is given here.

Sequence of CYP2C19 (P33261 whole entry): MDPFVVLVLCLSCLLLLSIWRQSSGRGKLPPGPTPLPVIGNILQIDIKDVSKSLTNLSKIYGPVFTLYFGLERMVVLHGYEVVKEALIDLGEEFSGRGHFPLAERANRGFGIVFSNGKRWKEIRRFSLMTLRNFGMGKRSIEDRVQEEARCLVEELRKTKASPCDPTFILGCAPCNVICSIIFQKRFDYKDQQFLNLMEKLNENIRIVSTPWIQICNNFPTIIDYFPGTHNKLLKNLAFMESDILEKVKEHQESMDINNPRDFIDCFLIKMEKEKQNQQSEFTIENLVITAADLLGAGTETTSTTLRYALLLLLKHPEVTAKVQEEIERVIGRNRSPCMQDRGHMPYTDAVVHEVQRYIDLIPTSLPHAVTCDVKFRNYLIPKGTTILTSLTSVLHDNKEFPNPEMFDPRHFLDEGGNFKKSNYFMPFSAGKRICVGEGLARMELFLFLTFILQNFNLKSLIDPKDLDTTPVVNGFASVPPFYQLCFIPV
Sequence of Cytochrome P450 3A4 (P08684 whole entry): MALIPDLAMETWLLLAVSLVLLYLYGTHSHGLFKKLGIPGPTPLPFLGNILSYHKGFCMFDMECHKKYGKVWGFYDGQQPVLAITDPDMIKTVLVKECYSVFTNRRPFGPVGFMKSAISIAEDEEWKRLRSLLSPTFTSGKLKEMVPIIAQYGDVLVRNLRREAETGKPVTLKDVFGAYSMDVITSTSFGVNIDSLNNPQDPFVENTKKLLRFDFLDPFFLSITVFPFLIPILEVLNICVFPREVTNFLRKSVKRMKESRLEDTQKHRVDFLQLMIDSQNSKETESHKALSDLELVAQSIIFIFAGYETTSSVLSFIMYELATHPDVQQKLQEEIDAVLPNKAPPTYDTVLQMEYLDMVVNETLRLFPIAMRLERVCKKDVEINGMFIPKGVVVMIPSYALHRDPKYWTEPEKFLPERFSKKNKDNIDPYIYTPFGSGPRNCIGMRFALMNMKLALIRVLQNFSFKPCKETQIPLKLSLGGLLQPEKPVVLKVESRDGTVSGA
Sequence of CYP3A4 (P08684 whole entry): as above

As for `CCCCC(N)C(=O)NCCc1ccc(-c2ccc(Cl)c(Cl)c2)cc1.Cl` (racemic), the inhibition at 10 µM in data set [1], in data set [2] and in [8] was greater than 70% throughout. In addition, the MIC in [3] came out at 2 µg/mL; in data set [4], 4 µg/mL; in data set [5] it was 4 µg/mL; in [6], 1 µg/mL. For the same compound, the remaining at 0.5 h in [7] was greater than 85%.

As to `CCCC(NC)C(=O)NCCc1ccc(-c2ccc(C(F)(F)F)cc2)cc1.Cl` (racemic), the MIC in [3] stood at 32 µg/mL; in data set [4] it was 32 µg/mL; in [5] it was 32 µg/mL; in data set [6], 16 µg/mL. Also, the figures for the “inhibition (INH)” value in [9], in data set [10] and in data set [11] were “Not Active”, “Not Active” and “Active”, respectively.

In the case of `CCCC(NC)C(=O)NCCc1ccc(-c2ccc(Cl)c(Cl)c2)cc1.Cl` (racemic), the MIC in data set [3] turned out to be 16 µg/mL; in [4] it was 16 µg/mL; in data set [5], 8 µg/mL; in data set [6], 4 µg/mL. The Stability result is “Unstable” in data set [12], greater than 95% in data set [13], greater than 95% in data set [14] and “Unstable” in [15]. Besides, the remaining at 0.5 h in [7] was greater than 85%.

Consider `C[C@@H]1[C@H](O)[C@@H](C)/C=C/C=C/C=C/C=C/C=C/C=C/C=C/[C@H](O[C@@H]2O[C@H](C)[C@@H](O)[C@H](N)[C@@H]2O)C[C@@H]2O[C@](O)(C[C@@H](O)C[C@@H](O)[C@H](O)CC[C@@H](O)C[C@@H](O)CC(=O)O[C@H]1C)C[C@H](O)[C@H]2C(=O)O` [AMPHOTERICIN B], for which the outcome in [16] was Active. Further, the MIC was determined as 0.25 µg/mL (≈ 0.271 µM) in [3], 0.5 µg/mL (≈ 0.541 µM) in data set [4], 1 µg/mL (≈ 1.08 µM) in data set [5] and 0.25 µg/mL (≈ 0.271 µM) in [6].

As for `Cc1cc(C2CCCCC2)n(O)c(=O)c1` [CICLOPIROX], the outcome in data set [17] and in [19] was inactive. Besides, the Activity in [18] came to 24.21%.

Regarding `C=C1CCN([C@H](C)[C@](O)(Cn2cncn2)c2ccc(F)cc2F)CC1` [EFINACONAZOLE], the IC50 in data set [20] turned out to be 1 µg/mL (≈ 2.87 µM). The result in data set [21], in data set [22], in [23] and in data set [24] was Active. For the same compound, the Activity in data set [18] was 31.9%. Besides, the outcome in data set [25] was inactive.

For the compound `OC(Cn1cncn1)(Cn1cncn1)c1ccc(F)cc1F` [FLUCONAZOLE], the outcome in [26] and in data set [27] was Active. Also, the IC50 in data set [28] and in [29] was 64 µg/mL (≈ 209 µM) throughout. In addition, in [25], the outcome was inactive.

As usually defined, the inhibition is the share of the control response that was lost under treatment. The MIC is the least concentration at which growth counts as inhibited. By IC50 is commonly meant the point on the concentration scale where inhibition reaches its midpoint.
